Laboratory results published in PubChem BioAssay AID296 (DTP/NCI, 2004).
“And” between values parts separate entries of the source, which are not always exact repeats. Identical values can stand only once. Results filed as inconclusive are left out.

System: MX-1 breast xenograft, nude mice, tumor weight T/C
Assay: NCI In Vivo Anticancer Drug Screen. Data for tumor model Human Mammary Carcinoma MX-1 Xenograft (intrarenal inoculation) in NU/NU Swiss (nude) mice
Conditions: endpoint: mean tumor weight change, higher = larger tumour
How it was run: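 Compound dosed to mice with transplantable tumor; vehicle group as control. Endpoint survival or tumour size, reported as T/C.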

[1] = dose: 50.0 mg/kg/injection, schedule: Q01DX010 (sc), vehicle: saline
[2] = dose: 100.0 mg/kg/injection, schedule: Q01DX010 (sc), vehicle: saline

`Nc1ncnc2c1ncn2C1C=C(CO)C(O)C1O` (centres undefined) was tested, and the T/C (dose: 3.75 mg/kg/injection, schedule: Q04DX003 (sc), vehicle: saline) was 88 % of control, the T/C (dose: 7.5 mg/kg/injection, schedule: Q04DX003 (sc), vehicle: saline) was 75 % of control and the T/C (dose: 15.0 mg/kg/injection, schedule: Q04DX003 (sc), vehicle: saline) was 64 % of control.

`O=[N+]([O-])c1ccc(-n2[nH]nnc2=S)cc1` was tested, and the T/C (dose: 200.0 mg/kg/injection, schedule: Q04DX003 (sc), vehicle: Klucel (hydroxypropylcellulose) (HPC)) was 158 % of control, the T/C (dose: 400.0 mg/kg/injection, schedule: Q04DX003 (sc), vehicle: Klucel (hydroxypropylcellulose) (HPC)) was 151 % of control and the T/C (dose: 800.0 mg/kg/injection, schedule: Q04DX003 (sc), vehicle: Klucel (hydroxypropylcellulose) (HPC)) was 169 % of control.

With `COc1ccc(-c2csc(=[N+]3CCCCC3)s2)cc1` the T/C (dose: 3.12 mg/kg/injection, schedule: Q04DX003 (sc), vehicle: water) was 89 % of control, the T/C (dose: 6.25 mg/kg/injection, schedule: Q04DX003 (sc), vehicle: water) was 85 % of control and the T/C (dose: 12.5 mg/kg/injection, schedule: Q04DX003 (sc), vehicle: water) was 89 % of control.

`COC(=O)Nc1nc2ccc(SC)cc2c(=O)[nH]1` was tested, and the T/C (dose: 150.0 mg/kg/injection, schedule: Q04DX003 (sc), vehicle: Klucel (hydroxypropylcellulose) (HPC)) was 83 % of control, the T/C (dose: 300.0 mg/kg/injection, schedule: Q04DX003 (sc), vehicle: Klucel (hydroxypropylcellulose) (HPC)) was 116 % of control and the T/C (dose: 600.0 mg/kg/injection, schedule: Q04DX003 (sc), vehicle: Klucel (hydroxypropylcellulose) (HPC)) was 92 % of control. The T/C (dose: 1200.0 mg/kg/injection, schedule: Q04DX003 (sc), vehicle: Klucel (hydroxypropylcellulose) (HPC)) was 86 % of control.

For `C=CS(=O)(=O)c1ccccc1`, the T/C [1] was 91 % of control and the T/C [2] was 81 % of control.

For `O=c1nc(Oc2ccccc2)nc2ncccn12`, the T/C (dose: 25.0 mg/kg/injection, schedule: Q01DX010 (sc), vehicle: saline with Tween-80) was 100 % of control, the T/C (dose: 50.0 mg/kg/injection, schedule: Q01DX010 (sc), vehicle: saline with Tween-80) was 120 % of control and the T/C (dose: 100.0 mg/kg/injection, schedule: Q01DX010 (sc), vehicle: saline with Tween-80) was 42 % of control. The T/C (dose: 200.0 mg/kg/injection, schedule: Q01DX010 (sc), vehicle: saline with Tween-80) was 46 % of control.

For `CC[N+](CC)(CC)CC`, the T/C (dose: 1.5 mg/kg/injection, schedule: Q01DX010 (sc), vehicle: saline with Tween-80) was 65 % of control and the T/C (dose: 3.0 mg/kg/injection, schedule: Q01DX010 (sc), vehicle: saline with Tween-80) was 103 % of control.

For `NC1(C(=O)O)CCCC1`, the T/C (dose: 12.5 mg/kg/injection, schedule: Q01DX010 (sc), vehicle: saline) was 103 % of control, the T/C [1] was 25 % of control and 41 % of control and the T/C [2] was 7 % of control and 8 % of control.

With `O=C(NO)c1cc(O)c(O)c(O)c1` the T/C (dose: 200.0 mg/kg/injection, schedule: Q04DX003 (sc), vehicle: distilled water + Tween-80) was 64 % of control, the T/C (dose: 400.0 mg/kg/injection, schedule: Q04DX003 (sc), vehicle: distilled water + Tween-80) was 109 % of control and the T/C (dose: 800.0 mg/kg/injection, schedule: Q04DX003 (sc), vehicle: distilled water + Tween-80) was 122 % of control.

`CO[C@H](C(=O)[C@@H](O)[C@@H](C)O)[C@@H]1Cc2cc3cc(OC4CC(OC5CC(O)C(O)C(C)O5)C(O)C(C)O4)c(C)c(O)c3c(O)c2C(=O)[C@H]1OC1CC(OC2CC(OC3CC(C)(O)C(O)C(C)O3)C(O)C(C)O2)C(O)C(C)O1` (some centres undefined) was tested, and the T/C (dose: 0.25 mg/kg/injection, schedule: Q01DX010 (sc), vehicle: saline) was 86 % of control, the T/C (dose: 0.25 mg/kg/injection, schedule: Q04DX003 (sc), vehicle: saline) was 105 % of control and the T/C (dose: 0.5 mg/kg/injection, schedule: Q04DX003 (sc), vehicle: saline) was 72 % of control. The T/C (dose: 0.75 mg/kg/injection, schedule: Q04DX003 (sc), vehicle: saline) was 66 % of control, the T/C (dose: 1.0 mg/kg/injection, schedule: Q04DX003 (sc), vehicle: saline) was 42 % of control and the T/C (dose: 1.5 mg/kg/injection, schedule: Q04DX003 (sc), vehicle: saline) was 26 % of control. For the same compound, the T/C (dose: 2.0 mg/kg/injection, schedule: Q01DX010 (sc), vehicle: saline) was -98 % of control and the T/C (dose: 2.0 mg/kg/injection, schedule: Q04DX003 (sc), vehicle: saline) was -34 % of control.

For `O/N=C/c1ccccc1O.O/N=C/c1ccccc1O.[Cu]`, the T/C (dose: 300.0 mg/kg/injection, schedule: Q04DX003 (sc), vehicle: saline with Tween-80) was 81 % of control, the T/C (dose: 600.0 mg/kg/injection, schedule: Q04DX003 (sc), vehicle: saline with Tween-80) was 72 % of control and the T/C (dose: 1200.0 mg/kg/injection, schedule: Q04DX003 (sc), vehicle: saline with Tween-80) was 60 % of control. For the same compound, the T/C (dose: 2400.0 mg/kg/injection, schedule: Q04DX003 (sc), vehicle: saline with Tween-80) was 103 % of control.
